Values joined by “and” are separate entries in the source; they are usually repeats but may differ in a detail not shown here. Equal values may be shown once. Read-outs that look alike come from different tables or passages of the source.
Target: fully phosphorylated, mouse aERK2 enzyme (Mus musculus (Mouse), UniProt P63085)
Assay: Active ERK2 (aERK) IMAP-FP assay, condition 2
Type: biochemical
Method in brief: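 Phosphorylation by fully phosphorylated mouse ERK2 ran 40-45 min, then quenched with IMAP beads (1:1000) in binding buffer; fluorescence polarization read after 30 min binding equilibration.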

[1] = active ERK2, read-out: aErk2 Ic50
[2] = aERK assay condition 2, 30 uM ATP, read-out: aERK IC50

Sequence of fully phosphorylated, mouse aERK2 enzyme (P63085 whole entry): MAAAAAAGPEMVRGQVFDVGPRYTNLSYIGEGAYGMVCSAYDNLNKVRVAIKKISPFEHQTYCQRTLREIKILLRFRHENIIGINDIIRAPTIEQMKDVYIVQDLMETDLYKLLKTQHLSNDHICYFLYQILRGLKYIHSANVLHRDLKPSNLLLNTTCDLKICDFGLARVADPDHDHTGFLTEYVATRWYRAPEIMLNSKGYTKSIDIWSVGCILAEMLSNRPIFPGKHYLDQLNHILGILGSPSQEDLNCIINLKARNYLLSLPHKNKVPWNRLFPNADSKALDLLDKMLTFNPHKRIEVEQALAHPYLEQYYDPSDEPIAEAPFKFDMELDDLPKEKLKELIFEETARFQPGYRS

| Compound | IC50 [1] | IC50 [2] [nM] |
| --- | --- | --- |
| CCN(CC)C(=O)[C@@H]1CC[C@@H](NC(=O)c2ccc3[nH]nc(-c4ccncc4)c3c2)CN1Cc1c(F)cccc1OC [N-[(3R,6S)-6-(diethylcarbamoyl)-1-(2-fluoro-6-methoxybenzyl)piperidin-3-yl]-3-pyridin-4-yl-1H-indazole-5-carboxamide] | 18.4 nM | – |
| COc1cccc(F)c1CN1C[C@H](NC(=O)c2ccc3[nH]nc(-c4ccnnc4)c3c2)CC[C@H]1C(=O)N(C)C [N-[(3R,6S)-6-(dimethylcarbamoyl)-1-(2-fluoro-6-methoxybenzyl)piperidin-3-yl]-3-pyridazin-4-yl-1H-indazole-5-carboxamide] | 137 nM | – |
| CCN(C)C(=O)[C@@H]1CC[C@@H](NC(=O)c2ccc3[nH]nc(-c4ccnc(C)c4)c3c2)CN1Cc1c(F)cccc1OC [N-[(3R,6S)-6-[ethyl(methyl)carbamoyl]-1-(2-fluoro-6-methoxybenzyl)piperidin-3-yl]-3-(2-methylpyridin-4-yl)-1H-indazole-5-carboxamide] | 21.8 nM | – |
| CCN(CC)C(=O)[C@@H]1CC[C@@H](NC(=O)c2ccc3[nH]nc(-c4ccnc(C)c4)c3c2)CN1Cc1ccccc1F [N-[(3R,6S)-6-(diethylcarbamoyl)-1-(2-fluorobenzyl)piperidin-3-yl]-3-(2-methylpyridin-4-yl)-1H-indazole-5-carboxamide] | 20.1 nM | – |
| COc1cccc(F)c1CN1C[C@@H](NC(=O)c2ccc3[nH]nc(-c4ccnc(C)c4)c3c2)CC[C@@H]1C(=O)N1CC(O[Si](C)(C)C(C)(C)C)CO1 (stereo in doubt) [N-[(3S,6R)-6-[(4-{[tert-butyl(dimethyl)silyl]oxy}isoxazolidin-2-yl)carbonyl]-1-(2-fluoro-6-methoxybenzyl)-piperidin-3-yl]-3-(2-methylpyridin-4-yl)-1H-indazole-5-carboxamide] | 72.5 nM and 144 nM | – |
| CNC(=O)C(c1ccccc1F)N1CCC[C@@H](NC(=O)c2ccc3[nH]nc(-c4ccncc4)c3c2)C1 (single isomer, unassigned) [drawing 501, N-((R)-1-((R or S)-1-(2-fluorophenyl)-2-(methyl-amino)-2-oxoethyl)piperidin-3-yl)-3-(pyridin-4-yl)-1H-indazole-5-carboxamide] | – | 175 |
| CN(C)C(=O)C(c1c(F)cccc1F)N1CCC[C@@H](NC(=O)c2ccc3[nH]nc(-c4ccncc4)c3c2)C1 (single isomer, unassigned) [drawing 507, N-((R)-1-((R or S)-1-(2,6-difluorophenyl)-2-(dimethyl-amino)-2-oxoethyl)piperidin-3-yl)-3-(pyridin-4-yl)-1H-indazole-5-carboxamide] | – | 416 |
| NC(=O)C(c1c(F)cccc1F)N1CCC[C@@H](NC(=O)c2ccc3[nH]nc(-c4ccncc4)c3c2)C1 (single isomer, unassigned) [drawing 503, N-((R)-1-((R or S)-2-amino-1-(2,6-difluorophenyl)-2-oxoethyl)piperidin-3-yl)-3-(pyridin-4-yl)-1H-indazole-5-carboxamide] | – | 222 |
| COc1cccc(F)c1CN1C[C@H](NC(=O)c2ccc3[nH]nc(-c4ccnc(C)c4)c3c2)CC[C@H]1C(=O)Nc1ccc(C)cc1C [N-[(3R,6S)-6-[(2,4-dimethylphenyl)carbamoyl]-1-(2-fluoro-6-methoxybenzyl)piperidin-3-yl]-3-(2-methylpyridin-4-yl)-1H-indazole-5-carboxamide] | – | 54.8 |
| COc1cccc(F)c1CN1C[C@H](NC(=O)c2ccc3[nH]nc(-c4ccnc(C)c4)c3c2)CC[C@H]1C(=O)Nc1ccncc1 [N-[(3R,6S)-1-(2-fluoro-6-methoxybenzyl)-6-(pyridin-4-ylcarbamoyl)piperidin-3-yl]-3-(2-methylpyridin-4-yl)-1H-indazole-5-carboxamide] | – | 3 |
| COc1cccc(F)c1CN1C[C@H](NC(=O)c2ccc3[nH]nc(-c4ccnc(C)c4)c3c2)CC[C@H]1C(=O)Nc1ccc(F)cc1 [N-{(3R,6S)-1-(2-fluoro-6-methoxybenzyl)-6-[(4-fluorophenyl)carbamoyl]piperidin-3-yl}-3-(2-methylpyridin-4-yl)-1H-indazole-5-carboxamide] | – | 23.4 |
